Measured values taken from PubChem BioAssay (NCI).
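Protocol summary: plate cells (96-well), add compound at 5 concentrations, incubate 48 h, interpolate endpoints linearly. Definition used: TGI = concentration required for complete inhibition of growth.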

Experiments:
Experiment in all cases: NCI-60 cell line screen, 48 h
[1] = system: RXF 393 renal
[2] = system: UO-31 renal
[3] = system: CAKI-1 renal
[4] = system: OVCAR-3 ovarian
[5] = system: SK-MEL-2 melanoma
[6] = system: U251 CNS
[7] = system: MDA-MB-435
[8] = system: HL-60(TB) leukemia
[9] = system: MDA-MB-231 breast
[10] = system: NCI-H23 lung
[11] = system: NCI-H522 lung
[12] = system: A549 NSCLC
[13] = system: SW-620 colon
[14] = system: NCI/ADR-RES ovarian
[15] = system: K-562 leukemia
[16] = system: SF-539 CNS
[17] = system: OVCAR-4 ovarian
[18] = system: SN12C renal
[19] = system: OVCAR-8 ovarian
[20] = system: COLO 205 colon
[21] = system: CCRF-CEM leukemia
[22] = system: DU-145 prostate
[23] = system: KM12 colon
[24] = system: M14 melanoma
[25] = system: HCT-15 colon
[26] = system: SNB-75 CNS
[27] = system: IGROV1 ovarian
[28] = system: SF-295 CNS
[29] = system: MDA-N
[30] = system: PC-3 prostate
[31] = system: EKVX NSCLC
[32] = system: T-47D breast
[33] = system: HT29 colon
[34] = system: HS 578T breast
[35] = system: SNB-19 CNS
[36] = system: OVCAR-5 ovarian
[37] = system: TK-10 renal
[38] = system: SK-MEL-5 melanoma
[39] = system: SF-268 CNS
[40] = system: 786-0 renal
[41] = system: RPMI-8226 leukemia
[42] = system: HOP-62 NSCLC
[43] = system: HOP-92 NSCLC
[44] = system: SK-MEL-28 melanoma
[45] = system: NCI-H226 lung
[46] = system: ACHN renal
[47] = system: UACC-257 melanoma
[48] = system: UACC-62 melanoma
[49] = system: SK-OV-3 ovarian
[50] = system: MOLT-4 leukemia
[51] = system: MCF7 breast
[52] = system: BT-549 breast
[53] = system: HCT-116 colon
[54] = system: HCC-2998 colon
[55] = system: MALME-3M melanoma
[56] = system: SR leukemia
[57] = system: LOX IMVI melanoma

For `COc1ccc2nc(N/N=C/c3ccc(C)s3)cc(C)c2c1`, the TGI [1] was 41.6 µM, the TGI [2] was 36.5 µM and the TGI [3] was 40.5 µM. It also gave a TGI [4] of 38.1 µM, a TGI [5] of 41.6 µM and a TGI [6] of 72.9 µM. The TGI [7] was 60.6 µM, the TGI [8] was > 100 µM and the TGI [9] was 43.9 µM. The TGI [10] was 28.6 µM, the TGI [11] was > 100 µM and the TGI [12] was > 100 µM. The TGI [13] was > 100 µM, the TGI [14] was 66.4 µM and the TGI [15] was 49 µM. For the same compound, the TGI [16] was 34.8 µM, the TGI [17] was 48.7 µM and the TGI [18] was 38.3 µM. For the same compound, the TGI [19] was 55.7 µM, the TGI [20] was 38.5 µM and the TGI [21] was > 100 µM. The TGI [22] was 34.7 µM, the TGI [23] was 39.8 µM and the TGI [24] was 37.7 µM. The TGI [25] was 32.4 µM, the TGI [26] was 46.4 µM and the TGI [27] was 90 µM. The TGI [28] was 37.8 µM, the TGI [29] was 38.2 µM and the TGI [30] was 35.9 µM. For the same compound, the TGI [31] was 87.9 µM, the TGI [32] was 46.4 µM and the TGI [33] was 25.7 µM. For the same compound, the TGI [34] was 55.2 µM, the TGI [35] was 34.8 µM and the TGI [36] was 32.6 µM. For the same compound, the TGI [37] was > 100 µM, the TGI [38] was 30.5 µM and the TGI [39] was 54.7 µM. The TGI [40] was 42.6 µM, the TGI [41] was 37.3 µM and the TGI [42] was 39.6 µM. For the same compound, the TGI [43] was 43.2 µM, the TGI [44] was > 100 µM and the TGI [45] was 41 µM. It also gave a TGI [46] of 37.8 µM, a TGI [47] of 39.4 µM and a TGI [48] of 35.4 µM. The TGI [49] was 45 µM, the TGI [50] was 35.5 µM and the TGI [51] was 37.5 µM. It also gave a TGI [52] of 29.6 µM, a TGI [53] of 35.9 µM and a TGI [54] of 33.5 µM. For the same compound, the TGI [55] was 58.7 µM, the TGI [56] was 61 µM and the TGI [57] was 33.7 µM.
